Test [1] relates to C. glutamicum ATCC 13032 transformed with aspCProA pEKEX-2. Put plainly: Monatin efflux with biotin and ampicillin treatments. The class given is cell-based, Corynebacterium glutamicum. As to the method:
C. glutamicum ATCC 13032 strains transformed with aspCProA pEKEX-2 were grown overnight in LB medium supplemented with 50 μg/mL kanamycin incubated at 30° C. and shaking at 250 rpm. […] Microbiol 151:342-347, (1989). […] The pH was adjusted to 7.0.
Additions of 1.0 g L-tryptophan and 5 g/L sodium pyruvate and ampicillin (either 0 or 10 μg/ml) were made 3 hours following induction.

The subject of test [2] is C. glutamicum 13032::aspC/proA/pEKEX2-2. In words: Monatin excretion using ethambutol. The class given is cell-based, Corynebacterium glutamicum. As to the method: (§1) Microbiol 151:342-347, (1989). […] The pH was adjusted to 7.0.
Conditions for the treatments included 30° C. throughout the experiment and 250 rpm agitation. Ethambutol (10 mg/L) was added either prior to inoculation of shake flasks or at the first feeding time when tryptophan and pyruvate were added. […] Additions of 1 g L-tryptophan, 10 g/L sodium pyruvate, 0.04 mM pyridoxal-5′-phosphate (“PLP”), were made 3 hours following induction.

Test [3] relates to E. coli MG1655 ΔAcrAB 6-16::aspCproAproNde. Put plainly: AcrAB k.o. validation: growth (OD 600 nm) with novobiocin / sodium decanoate, knockout strain. The class given is cell-based, Escherichia coli. The method, then: (§2) Single chloramphenicol-resistant colonies were purified by restreaking on appropriate selective media and single colonies were tested by PCR as previously described for the BW25113 knockout strains, to verify the presence of the emrB and acrAB knockouts. The effects of the emrB and acrAB knockouts on the EmrAB and AcrAB transporter systems respectively were determined by assessing the phenotype of the transport mutants using appropriate antibiotics and comparison to wild type control microorganisms as shown in Table 3.1 and Table 3.2 below.

Test [4] relates to E. coli MG1655::aspCproApProNde (control). In words: AcrAB k.o. validation: growth (OD 600 nm) with novobiocin / sodium decanoate, control strain. It is filed as cell-based, Escherichia coli. As to the method:
as §2

Test [5] relates to C. glutamicum 13032 transformed with aspCProA pEKEX-2. In words: Monatin efflux with increased temperature and sodium pyruvate. The class given is cell-based, Corynebacterium glutamicum. The method, then:
as §1
Conditions for treatments included 30° or 35° C. throughout the experiment and 250 rpm agitation. At an OD600 nm, between 0.45-0.51, induction of the monatin operon genes was initiated. […] Additions of 1.0 g L-tryptophan, 10 or 15 g/L sodium pyruvate, 0.04 mM pyridoxal-5′-phosphate (“PLP”), were made 3 hours and also at 24 hours following induction. A total of 20 or 30 g/L sodium pyruvate was added to each flask by adding 10 or 15 g/l at each of the two feeding times.

For test [6], the system named is C. glutamicum ATCC 13032 transformed with aspCProApEKEX-2. As to the method:
C. glutamicum ATCC 13032 strains transformed with aspCProApEKEX-2 were grown overnight in LB medium supplemented with 25 μg/mL kanamycin incubated at 37° C. and shaking at 250 rpm. For the experimental treatment flasks, 100 mL of Krämer's A medium was used in each shake flask. Hoischen, C. and Krämer, R., “Evidence for an efflux carrier system involved in the secretion of glutamate by Corynebacterium glutamicum,” Arch. Microbiol 151:342-347, (1989). Krämer's A medium contained (per liter): 5 g (NH4)2SO4, 5 g urea, 2 g KH2PO4, 1.53 g K2HPO4, 0.249 g MgSO4.7H2O, 50 g glucose, 0.01 g FeSO4.7H2O, 0.01 g MnSO4.H2O, 0.01 g CaCl2.2H2O, 0.03 mg ZnSO4.7H2O, 0.1 mg H3BO3, 0.07 mg […], 0.01 mg NiCl2.2H2O, 0.03 mg CuCl2.2H2O, 0.1 mg as Mo^+6 from (NH4)6Mo7O24-4H2O and 1 μg biotin. The pH was adjusted to 7.0.
For treatments, 4.2 v/v % of inoculum was added to 100 mL medium volume in 500 mL baffled shake flasks. Conditions for the treatments included 37° C. throughout the experiment and 250 rpm agitation. Sodium salicylate (0, 1 mM or 2 mM) was added 1 hour following inoculation. At 0.45-0.6 OD600 nm induction of the monatin operon genes was initiated. IPTG at 0.5 mM was used for induction, and additions at the time of induction included 0.5 mM pyridoxine hydrochloride and 0.04 mM pyridoxal-5′-phosphate (“PLP”). Additions of 1 g L-tryptophan, 5 g/L sodium pyruvate and 10 μg/mL ampicillin were made 3 hours following induction. Samples for monatin and dry cell weight determination were taken at 23.5 and 48 hours.
Monatin analysis was conducted as described in Example 13.

The test system of test [7] is E. coli BL21DE3 AP pET32. In words: Monatin excretion with Tween 20, E. coli BL21DE3 with or without Arabidopsis auxin transporter gene. As to conditions: 0.2% Tween 20. It is filed as cell-based, Escherichia coli. The method, then:
For inoculum preparation, the E. coli strains were grown overnight at 37° C. and 250 rpm in Luria-Bertani (“LB”) medium with 100 μg/mL ampicillin and 50 μg/mL kanamycin. For the experimental treatments, Trp-1+glucose medium, a minimal medium that has been used for increased production of tryptophan in E. coli cells (Zeman, et al. Folia Microbiol. 35:200-204, (1990)), was prepared as follows. To 800 mL nanopure water the following reagents were added: 2 g (NH4)2SO4 and 13.6 g KH2PO4. The pH was adjusted to 7.0, the volume was increased to 948 mL, and the medium was autoclaved. Following sterilization, 0.2 g MgSO4.7H2O, 0.01 g CaCl2.2H2O, and 0.5 mg FeSO4.7H2O were added to the medium in a 1.8 mL volume followed by addition of 0.2 mL of Neidhardt's micronutrient solution. Neidhardt F. C., et al., “Culture medium for Enterobacteria,” J. Bacteriol. 119:736-746, (1974). Neidhardt's medium includes (per liter): 0.18 g (NH4)6(MO7)24.4H2O, 1.24 g H3BO3, 0.36 g CoCl2.6H2O, 0.12 g CuSO4 (anhydrous), 0.8 g MnCl2.4H2O, and 0.14 g ZnSO4.7H2O. A 50% glucose solution was prepared separately and sterile-filtered. Forty mL of glucose solution and 10 mL of 1 M 3-Morpholinopropanesulfonic acid (“MOPS”) buffer were added to the base medium (950 mL) for a 1 L final volume.
Conditions for the treatments included 250 rpm agitation throughout and 37° C. up to induction, then, 30° C. following induction. At 0.54-0.62 OD600 nm, induction of the plasmid genes was initiated. At induction, 1.0 mM IPTG, 0.5% L-arabinose, 0.5 mM pyridoxine hydrochloride, and 0.2 mLs of Balch's vitamins were added. Additions of 10 g/L L-tryptophan, 10 g/L sodium pyruvate, 0.04 mM pyridoxal-5′-phosphate (“PLP”) and 0 or 0.2% Tween® 20 (polyoxyethylene 20-sorbitan monolaurate) were made 3 hours following induction.

The mark [8] stands for this setting: Ampicillin 10 μg/mL, Biotin 1 μg/L.
Where [9] appears, read: Ampicillin 10 μg/mL, Biotin 200 μg/L.
The mark [10] stands for this setting: Biotin 200 μg/L, Ampicillin 0 μg/mL.
[11] abbreviates: ethambutol 10 mg/L with 0.2% Tween 20 and 10 μg/ml ampicillin, n = 2.
[12] abbreviates: ethambutol 10 mg/L, another 10 g/L sodium pyruvate at 24 hours, n = 2.
Setting [13] is: 40 or 80 ppm novobiocin, no sodium decanoate.
The mark [14] stands for this setting: novobiocin 40 ppm, sodium decanoate 0 mM.
Setting [15] is: novobiocin 40 ppm, sodium decanoate 2.5 mM.
Where [16] appears, read: novobiocin 80 ppm, sodium decanoate 0 mM.
Setting [17] is: novobiocin 80 ppm, sodium decanoate 2.5 mM.
Setting [18] is: Arabidopsis auxin transporter gene on pProNde del, n = 3.
Where [19] appears, read: no auxin transporter gene on pProNde del, n = 3.

The values below come from patent US8158389B2, “Products and methods for in vivo secretion of monatin” (priority 2005, dated 2012).

Like-named read-outs stand apart in the source and are kept apart here. Marks after values point to notes of the source that are not given here.

On to `CC1(C)S[C@@H]2[C@H](NC(=O)[C@H](N)c3ccccc3)C(=O)N2[C@H]1C(=O)O` [Ampicillin, ampicillin], for which, in test [1] (setting [8]), the “Monatin/dry cell weight, 24 hours” value is 16.2 mg/g and the “Monatin/dry cell weight, 48 hours” value worked out at 13.5 mg/g. For the same compound, in test [1] (setting [9]), the “Monatin/dry cell weight, 24 hours” value stood at 12.1 mg/g and the “Monatin/dry cell weight, 48 hours” value came out at 9.3 mg/g.
Consider `O=C(O)CCCC[C@@H]1SC[C@@H]2NC(=O)N[C@@H]21` [Biotin, biotin], for which the “Monatin/dry cell weight, 48 hours” value in test [1] (Biotin 1 μg/L, Ampicillin 0 μg/mL) was 4.5 mg/g; in test [1] (setting [10]), 1.7 mg/g. Besides, the “Monatin/dry cell weight, 24 hours” value in test [1] (Biotin 1 μg/L, Ampicillin 0 μg/mL, n = 1) is on record as 1.9* mg/g; in test [1] (setting [10]), 0.9 mg/g.
Regarding `CC[C@@H](CO)NCCN[C@@H](CC)CO` [ethambutol], the “greater monatin excreted per dry cell weight” value in test [2] (Tween/ampicillin treatment with 10 mg/L ethambutol vs same treatment without ethambutol, 48 hours) came to 12 fold. In test [2] (setting [11]), the “Monatin/dry cell weight, 24 hours” value was 6.94 mg/g; the “Monatin/dry cell weight, 30 hours” value worked out at 8.80 mg/g; the “Monatin/dry cell weight, 48 hours” value was found to be 9.14 mg/g. In addition, in test [2] (setting [12]), the “Monatin/dry cell weight, 24 hours” value turned out to be 1.04 mg/g; the “Monatin/dry cell weight, 31 hours” value was 1.53 mg/g; the “Monatin/dry cell weight, 48 hours” value is on record as 2.19 mg/g. Also, in test [2] (ethambutol 10 mg/L, n = 2), the “Monatin/dry cell weight, 24 hours” value was 1.16 mg/g; the “Monatin/dry cell weight, 31 hours” value worked out at 1.15 mg/g; the “Monatin/dry cell weight, 48 hours” value turned out to be 1.06 mg/g.
Regarding `CO[C@@H]1[C@@H](OC(N)=O)[C@@H](O)[C@H](Oc2ccc3c(O)c(NC(=O)c4ccc(O)c(CC=C(C)C)c4)c(=O)oc3c2C)OC1(C)C` [novobiocin], the growth entry in test [3] (setting [13]) is recorded as “growth is completely inhibited”; in test [4] (0, 40 or 80 ppm novobiocin, in the presence of sodium decanoate) it was “grew to similar optical densities”; in test [4] (setting [13]) it was “only slight inhibition of growth”. For the same compound, the “OD 600 nm at 19 hours” value in test [3] (setting [14]) turned out to be 0.007; in test [3] (setting [15]), 0.008; in test [3] (setting [16]) it was 0.006; in test [3] (setting [17]), 0.008; in test [4] (setting [14]) it was 1.407; in test [4] (setting [15]), 1.395. Besides, the “OD 600 nm at 19 hours” value is given as 0.793 in test [4] (setting [16]) and 1.374 in test [4] (setting [17]).
Consider `CC(=O)C(=O)[O-].[Na+]` [pyruvate, sodium pyruvate], for which, in test [5] (30° C., 20 g/L pyruvate), the “Monatin/dry cell weight, 24 hours” value is on record as 0.2 mg/g; the “Monatin/dry cell weight, 31 hours” value is 2.1 mg/g; the “Monatin/dry cell weight, 48 hours” value is recorded as 2.7 mg/g; the “Monatin/dry cell weight, 54 hours” value is listed as 2.7 mg/g. For the same compound, in test [5] (30° C., 30 g/L pyruvate), the “Monatin/dry cell weight, 24 hours” value came to 0.3 mg/g; the “Monatin/dry cell weight, 31 hours” value worked out at 1.8 mg/g; the “Monatin/dry cell weight, 48 hours” value was 4.3 mg/g; the “Monatin/dry cell weight, 54 hours” value worked out at 4.7 mg/g. Besides, in test [5] (35° C., 20 g/L pyruvate), the “Monatin/dry cell weight, 24 hours” value is given as 5.4 mg/g; the “Monatin/dry cell weight, 31 hours” value is reported as 14.7 mg/g; the “Monatin/dry cell weight, 48 hours” value amounted to 23.5 mg/g; the “Monatin/dry cell weight, 54 hours” value is 23.8 mg/g. Besides, in test [5] (35° C., 30 g/L pyruvate), the “Monatin/dry cell weight, 24 hours” value is listed as 5.8 mg/g; the “Monatin/dry cell weight, 31 hours” value was 18.1 mg/g; the “Monatin/dry cell weight, 48 hours” value is given as 29.4 mg/g; the “Monatin/dry cell weight, 54 hours” value stood at 35.2 mg/g.
Turning to `O=C([O-])c1ccccc1O.[Na+]` [sodium salicylate, Sodium salicylate], in test [6] (1 mM or 2 mM sodium salicylate, 23.5 hours), the “increase in monatin transported” value is on record as “seventy percent increase”. For the same compound, the “increase in monatin efflux” value in test [6] (1 mM or 2 mM sodium salicylate, 48 hours) was “seven percent increase”. Further, in test [6] (1 mM sodium salicylate), the “Monatin/dcw, 23.5 hours” value was determined as 7.41 mg/g and the “Monatin/dcw, 48 hours” value is on record as 9.94 mg/g. In addition, in test [6] (2 mM sodium salicylate), the “Monatin/dcw, 23.5 hours” value stood at 7.54 mg/g and the “Monatin/dcw, 48 hours” value worked out at 9.82 mg/g.
As to “polyoxyethylene 20-sorbitan monolaurate [Tween ® 20]”, the “Monatin/dry cell wt., 30 hours” value in test [7] (Arabidopsis auxin transporter gene on pProNde del, n = 2) was 26.7* mg/g. Further, in test [7] (setting [18]), the “Monatin/dry cell wt., 24 hours” value is reported as 29.4 mg/g and the “Monatin/dry cell wt., 48 hours” value was 19.7 mg/g. Moreover, in test [7] (setting [19]), the “Monatin/dry cell wt., 24 hours” value was 2.2 mg/g; the “Monatin/dry cell wt., 30 hours” value turned out to be 2.5 mg/g; the “Monatin/dry cell wt., 48 hours” value is listed as 2.2 mg/g.
